Format in all cases: toxicity, cell-based
The test system of data set [1] is U2OS. Kind of data set: Incucyte cell viability with U2OS. The note with it: human, 24 h, 10 µM, compound concentration 10 uM.
The test system of data set [2] is HEK-293T. Description: Incucyte cell viability with HEK293T. Particulars: human, 24 h, 10 µM, compound concentration 10 uM.
The test system of data set [3] is Fibroblast. Kind of data set: Incucyte cell viability with human fibroblast. Particulars: 24 h, 10 µM, compound concentration 10 uM.

SMILES strings stand for the structures.
Note: unitless GR value; below 1 slowed growth and below 0 cell loss.

As for `CC#C[C@]1(O)CC[C@H]2[C@@H]3CCC4=CC(=O)CCC4=C3[C@@H](c3ccc(N(C)C)cc3)C[C@@]21C` [MIFEPRISTONE], the “Growth Rate” value in data set [1] (replicate number 1) came to 0.84; in data set [1] (replicate number 2), 0.66; in data set [2] (replicate number 1) it was 0.49; in data set [2] (replicate number 2), 1; in data set [3] (replicate number 1) it was 1.
Consider `COc1cc(Nc2ncc(F)c(Nc3ccc4c(n3)NC(=O)C(C)(C)O4)n2)cc(OC)c1OC` [R-406], for which the “Growth Rate” value is listed as -0.31 in data set [1] (replicate number 1); -0.21 in data set [1] (replicate number 2); 0.1 in data set [2] (replicate number 1); 0.27 in data set [2] (replicate number 2); -0.02 in data set [3] (replicate number 1); -0.68 in data set [3] (replicate number 2).
As for `CC(C)(C)OC(=O)Nc1ccc(CNc2nccc(Nc3cc(C(=O)OC(C)(C)C)[nH]n3)n2)cc1`, the “Growth Rate” value in data set [1] (replicate number 1) was 0.42; in data set [1] (replicate number 2) it was 0.67; in data set [2] (replicate number 1), -0.38; in data set [2] (replicate number 2), -0.24; in data set [3] (replicate number 1), 1; in data set [3] (replicate number 2), 0.07.
As for `CC(C)(O)c1ccc(N2Cc3c(ccnc3-c3ccc(F)cc3OCC(F)(F)F)C2=O)cc1`, the “Growth Rate” value in data set [1] (replicate number 1) is on record as 0.05; in data set [1] (replicate number 2), 1; in data set [2] (replicate number 1) it was 0.87; in data set [2] (replicate number 2), 1; in data set [3] (replicate number 1) it was 0.68; in data set [3] (replicate number 2) it was 0.44.
`CCOCC1(COCC)CCC(c2n[nH]cc2CN(C)CCNC)CC1.Cl`: the “Growth Rate” value in data set [1] (replicate number 1) is 0.95; in data set [2] (replicate number 1) it was 0.61; in data set [2] (replicate number 2), 0.63; in data set [3] (replicate number 1) it was 1; in data set [3] (replicate number 2), 0.32.
`COc1cc(C(C)C)c2c(c1)S(=O)(=O)N(COc1cc(=O)n3cccc(OCCN4CCCCC4)c3n1)C2=O`: the “Growth Rate” value in data set [1] (replicate number 1) was 0.9; in data set [1] (replicate number 2) it was 1; in data set [2] (replicate number 1) it was -0.22; in data set [2] (replicate number 2), -0.01; in data set [3] (replicate number 1) it was -0.1; in data set [3] (replicate number 2) it was -0.7.

For the origin of these results see ChEMBL document CHEMBL5724709, “EUbOPEN Chemogenomics Library - IncuCyte” (2024).
